Target: T1, FPR2 (Homo sapiens, UniProt P25090)
T1 construct: expressed in transfected cells
T1 sequence (P25090 1-351): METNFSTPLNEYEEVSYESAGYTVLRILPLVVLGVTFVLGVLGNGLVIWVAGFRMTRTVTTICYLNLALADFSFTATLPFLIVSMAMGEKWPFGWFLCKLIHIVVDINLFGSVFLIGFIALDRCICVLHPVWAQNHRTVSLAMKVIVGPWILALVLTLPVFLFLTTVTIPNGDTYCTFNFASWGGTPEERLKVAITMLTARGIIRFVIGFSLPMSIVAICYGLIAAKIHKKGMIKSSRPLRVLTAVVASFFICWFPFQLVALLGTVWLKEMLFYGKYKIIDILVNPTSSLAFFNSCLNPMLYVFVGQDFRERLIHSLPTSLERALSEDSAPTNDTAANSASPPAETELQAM
Test: FLIPR Tetra calcium activity assay in CHO-Gα16 cells stably expressing FPR2
Type: cell-based
Description: CHO-Gα16 cells stably expressing FPR2 were cultured in F12 media (10% FBS, 1% PSA, 400 μg/ml geneticin and 50 μg/ml hygromycin). In general, the day before the experiment, 18,000 cells/well were plated in a 384-well clear bottom poly-D-lysine coated plate. The following day the screening compound-induced calcium activity was assayed on a FLIPR^Tetra. The drug plates were prepared in 384-well microplates using EP3 and MultiPROBE robotic liquid handling systems. Compounds were tested at concentrations ranging from 0.61 to 10,000 nM. Results are expressed as EC50 (nM) and % efficacy values.

In the case of `CCOC(=O)CCNCCC1(CC)NC(=O)N(NC(=O)Nc2ccc(Br)cc2)C1=O` (centres unmarked) [Compound 1, Ethyl 3-{[2-(1-{[(4-Bromophenyl)carbamoyl]amino}-4-ethyl-2,5-dioxoimidazolidin-4-yl)ethyl]amino}propanoate], the “FPR2 Gα16-CHO (% eff)” value (% efficacy, calcium activity) is reported as “(0.97) %” and the EC50 (compound-induced calcium activity, tested at 0.61 to 10,000 nM) is reported as 49 nM.

From patent US20160332972A1, “UREA HYDANTOIN DERIVATIVES AS FORMYL PEPTIDE MODULATORS” (ALLERGAN, INC., priority 2014, published 2016)
